Source: patent US20250144067A1, “PERSONALIZED STARVATION THERAPY FOR CANCER” (Faeth Therapeutics, Inc., priority 2021, published 2025)
Counter-ions that a name gives are not always drawn.

How the values were obtained:
[1] = test system: NCI-H292 lung cancer cells; assay: FDA drug screening, complete media vs cholesterol-free media without statin (TABLE 1); assay type: cell-based, human
[2] = test system: NCI-H292 lung cancer cells; assay: FDA drug screening, complete media vs cholesterol-free media with simvastatin (TABLE 2); assay type: cell-based, human; conditions: for Cholesterol-free media + simvastatin (0.04 μM) / Complete Media: NCI-H292 cells
[3] = Complete minus Cholesterol-free, >0 enhanced anti-cancer activity, about 0 neutral, <0 antagonist
[4] = NCI-H292 cells, cholesterol-free media without statin
[5] = drug in cholesterol-free media with simvastatin 0.04 μM
[6] = complete media vs cholesterol-free media + simvastatin (0.04 μM), >0 enhanced anti-cancer activity, about 0 neutral, <0 antagonist
[7] = NCI-H292 cells, cholesterol-free media without statin, FDA drug library screen
[8] = NCI-H292 cells, complete media, FDA drug library screen
[9] = complete vs cholesterol-free media, >0 enhanced anti-cancer activity, about 0 neutral, <0 antagonist
[10] = FDA drug library screen, cholesterol-free media with simvastatin 0.04 μM
[11] = FDA drug library screen, complete media
[12] = complete media minus cholesterol-free media + simvastatin, >0 enhanced anti-cancer activity, about 0 neutral, <0 antagonist
[13] = complete vs cholesterol-free media, greater than 0 enhanced anti-cancer activity, about 0 neutral, below 0 antagonists
[14] = Complete minus Cholesterol-free, greater than 0 enhanced anti-cancer activity, about 0 neutral, below 0 antagonist
[15] = NCI-H292 cells, FDA drug library screen, cholesterol-free media without statin
[16] = NCI-H292 cells, FDA drug library screen, complete media
[17] = FDA library drug in cholesterol-free media with simvastatin 0.04 μM
[18] = FDA library drug in complete media
[19] = cholesterol-free media with simvastatin 0.04 μM, FDA drug library screen (TABLE 2)
[20] = complete media, FDA drug library screen (TABLE 2)
[21] = complete media minus cholesterol-free media + simvastatin (0.04 μM), >0 enhanced anti-cancer activity, about 0 neutral, <0 antagonist
[22] = complete vs cholesterol-free media, […]
[23] = complete media vs cholesterol-free media + simvastatin (0.04 μM), […]
[24] = cholesterol-free media with simvastatin 0.04 μM, cell growth value in FDA drug screen
[25] = complete media, cell growth value in FDA drug screen
[26] = Complete minus Cholesterol-free, […]

Compound	Difference [1, 3]	Cholesterol-free [1, 4]	Complete ([1]; NCI-H292 cells, complete media)	Difference [2, 6]	Cholesterol-free [1, 7]	Complete [1, 8]	Cholesterol-free media + simvastatin (0.04 μM) [2, 10]	Complete Media [2, 11]	Cholesterol-free [1, 15]	Complete [1, 16]	also measured
COc1ccc(C(=O)c2ccccc2)c(O)c1 [Oxybenzone]	−0.29	1.383	1.094	−0.26							Cholesterol-free media + simvastatin (0.04 μM) [2, 5]: 1.175; Complete Media ([2]; drug in complete media): 0.918
CCCCOc1cc(C(=O)OCCN(CC)CC)ccc1N [Oxybuprocaine hydrochloride]					0.7998	0.9021	0.4662	1.022			Difference [1, 9]: 0.10; Difference [2, 12]: 0.56
CCN(CC)CC#CCOC(=O)C(O)(c1ccccc1)C1CCCCC1 (centres unmarked) [Oxybutynin (chloride)]		1.171	0.8317	−0.20							Difference [1, 13]: −0.34; Cholesterol-free media + simvastatin (0.04 μM) [2, 5]: 1.236; Complete Media ([2]; drug in complete media): 1.034
CCN(CC)CC#CCOC(=O)C(O)(c1ccccc1)C1CCCCC1 (centres unmarked) [Oxybutynin]							0.7436	1.133	1.075	0.9761	Difference [1, 14]: −0.10; Difference [2, 12]: 0.39
O=C1CCC[C@@H]2[C@H]3CCC[N+]4([O-])CCC[C@@H](CN12)[C@@H]34 (some centres unmarked) [Oxymatrine]	0.05			−0.28	0.9493	0.9958					Cholesterol-free media + simvastatin (0.04 μM) [2, 17]: 1.185; Complete Media [2, 18]: 0.9014
CCCCC1C(=O)N(c2ccccc2)N(c2ccc(O)cc2)C1=O (centres unmarked) [Oxyphenbutazone]				−0.79					1.282		Difference [1, 14]: −0.11; Cholesterol-free media + simvastatin (0.04 μM) [2, 17]: 1.844; Complete Media [2, 18]: 1.056
CN(C)[C@@H]1C(O)=C(C(N)=O)C(=O)[C@@]2(O)C(O)=C3C(=O)c4c(O)cccc4[C@@](C)(O)[C@H]3[C@H](O)[C@@H]12 [Oxytetracycline (hydrochloride)]											Difference ([1]; Complete minus Cholesterol-free, greater than 0 enhanced anti-cancer activity, about 0 neutral, below 0 antagonists): −0.72; Cholesterol-free ([1]; NCI-H292 cells in cholesterol-free media without statin): 1.728; Complete ([1]; NCI-H292 cells in complete media): 1.007; Cholesterol-free media + simvastatin (0.04 μM) [2, 19]: 0.991; Complete Media [2, 20]: 0.9652; Difference [2, 21]: −0.03
CN(C)[C@@H]1C(O)=C(C(N)=O)C(=O)[C@@]2(O)C(O)=C3C(=O)c4c(O)cccc4[C@@](C)(O)[C@H]3[C@H](O)[C@@H]12 [Oxytetracycline]				−0.84	0.9301	1.086					Difference [1, 9]: 0.16; Cholesterol-free media + simvastatin (0.04 μM) [2, 17]: 2.284; Complete Media [2, 18]: 1.447
CC[C@H](C)[C@@H]1NC(=O)[C@H](Cc2ccc(O)cc2)NC(=O)[C@@H](N)CSSC[C@@H](C(=O)N2CCC[C@H]2C(=O)N[C@@H](CC(C)C)C(=O)NCC(N)=O)NC(=O)[C@H](CC(N)=O)NC(=O)[C@H](CCC(N)=O)NC1=O [Oxytocin]		1.585	1.211				1.057	0.9051			Difference [1, 22]: −0.37; Difference [2, 23]: −0.15
O=C(O)/C=C/c1ccc(Cn2ccnc2)cc1 [Ozagrel (hydrochloride)]				−0.12	0.9304	1.021	1.247	1.131			Difference [1, 9]: 0.09
O=C(O)/C=C/c1ccc(Cn2ccnc2)cc1 [Ozagrel (sodium)]	−0.07				1.134	1.068					Cholesterol-free media + simvastatin (0.04 μM) [2, 19]: 1.082; Complete Media [2, 20]: 1.026; Difference [2, 21]: −0.06
O=C(O)/C=C/c1ccc(Cn2ccnc2)cc1 [Ozagrel]	−0.04				1.079	1.034	1.504	1.942			Difference [2, 12]: 0.44
CC(C)Oc1ccc(-c2nc(-c3cccc4c3CC[C@@H]4NCCO)no2)cc1C#N [Ozanimod]	−0.03			−0.17	1.036	1.004					Cholesterol-free media + simvastatin (0.04 μM) [2, 5]: 1.119; Complete Media ([2]; drug in complete media): 0.9531
CNc1ncc(-c2ccc3c(=O)c(C(=O)O)cn(C4CC4)c3c2C)cc1C [Ozenoxacin]		1.08	0.7589				0.8626	0.762			Difference [1, 22]: −0.32; Difference [2, 23]: −0.10
CC(=O)O[C@H]1C(=O)[C@@]2(C)[C@H]([C@H](OC(=O)c3ccccc3)[C@]3(O)C[C@H](OC(=O)[C@H](O)[C@@H](NC(=O)c4ccccc4)c4ccccc4)C(C)=C1C3(C)C)[C@]1(OC(C)=O)CO[C@@H]1C[C@@H]2O [Paclitaxel]	−0.01				0.0662	0.05705					Cholesterol-free media + simvastatin (0.04 μM) [2, 19]: 0.2107; Complete Media [2, 20]: 0.1648; Difference [2, 21]: −0.05
COc1ccc(C(C)=O)c(O)c1 [Paeonol]	−0.29	1.074	0.7804								Cholesterol-free media + simvastatin (0.04 μM) [2, 24]: 1.081; Complete Media [2, 25]: 1.107; Difference [2, 12]: 0.03
CC(=O)c1c(C)c2cnc(Nc3ccc(N4CCNCC4)cn3)nc2n(C2CCCC2)c1=O [Palbociclib (hydrochloride)]	−0.26	1.289	1.028	−0.22							Cholesterol-free media + simvastatin (0.04 μM) [2, 5]: 1.037; Complete Media ([2]; drug in complete media): 0.8185
CC(=O)c1c(C)c2cnc(Nc3ccc(N4CCNCC4)cn3)nc2n(C2CCCC2)c1=O.O=S(=O)(O)CCO [Palbociclib (isethionate)]	−0.25	0.905	0.6502								Cholesterol-free media + simvastatin (0.04 μM) [2, 19]: 0.7514; Complete Media [2, 20]: 0.6914; Difference [2, 21]: −0.06
CCCCCCCCCCCCCCCC(=O)OC1CCCn2c1nc(C)c(CCN1CCC(c3noc4cc(F)ccc34)CC1)c2=O (centres unmarked) [Paliperidone palmitate]				−0.37					1.234	1.075	Difference [1, 14]: −0.16; Cholesterol-free media + simvastatin (0.04 μM) [2, 17]: 1.193; Complete Media [2, 18]: 0.8268
Cc1nc2n(c(=O)c1CCN1CCC(c3noc4cc(F)ccc34)CC1)CCCC2O (centres unmarked) [Paliperidone]				−0.28					0.8391	0.6569	Difference [1, 14]: −0.18; Cholesterol-free media + simvastatin (0.04 μM) [2, 17]: 1.086; Complete Media [2, 18]: 0.8023
COc1cc2c(cc1OC)-c1cc3ccc(OC)c(OC)c3c[n+]1CC2.[Cl-] [Palmatine (chloride)]									0.7642	0.6255	Difference [1, 26]: −0.14; Cholesterol-free media + simvastatin (0.04 μM) [2, 19]: 0.706; Complete Media [2, 20]: 0.6459; Difference ([2]; complete media minus cholesterol-free media + simvastatin (0.04 μM), […]): −0.06
O=C1c2cccc3c2[C@H](CCC3)CN1[C@@H]1CN2CCC1CC2 [Palonosetron (Hydrochloride)]		1.075	0.7009	−0.26							Difference [1, 13]: −0.37; Cholesterol-free media + simvastatin (0.04 μM) [2, 5]: 1.184; Complete Media ([2]; drug in complete media): 0.927
Cn1c(=O)c2[nH]c(Br)nc2n(C)c1=O [Pamabrom]									0.9285	0.7717	Difference [1, 14]: −0.16; Cholesterol-free media + simvastatin (0.04 μM) [2, 24]: 0.9207; Complete Media [2, 25]: 0.9433; Difference [2, 12]: 0.02
NCCC(O)(P(=O)([O-])O)P(=O)([O-])O.O.O.O.O.O.[Na+].[Na+] [Pamidronate (disodium pentahydrate)]				−0.16			1.169	1.009	1.305	1.183	Difference [1, 14]: −0.12
NCCC(O)(P(=O)(O)O)P(=O)(O)O [Pamidronic acid]									0.8132	0.6309	Difference [1, 14]: −0.18; Cholesterol-free media + simvastatin (0.04 μM) [2, 19]: 1.09; Complete Media [2, 20]: 1.049; Difference [2, 21]: −0.04
CC1(C)CCC[C@](C)([C@H]2CC[C@]3(C)[C@@H]2[C@H](O)C[C@@H]2[C@@]4(C)CC[C@H](O)C(C)(C)[C@@H]4[C@@H](O)C[C@]23C)O1 [Panaxatriol]							1.085	0.956	1.136	1.044	Difference [1, 26]: −0.09; Difference [2, 23]: −0.13
